Laboratory results: patent publication US20170234881A1, “METHODS OF DIAGNOSING AND TREATING CANCER” (INSERM ( INSTITUT NATIONAL DE LA SANTÉ ET DE LA RECHERCHE …, priority 2014, published 2017)

Tests used:
TS/A cells = experiment: Cell invasion assay (matrigel-coated filters), TS/A; format: cell-based, mouse; conditions: concentration-dependent, level reached
Description: FIG. 2. OCDO is a tumor promoter in vitro and in vivo and its inhibition contributes to the anti-tumor effects of Tam and DDA. (A, B) Histograms representing the effect of OCDO or 17β-estrogen (E2) on MCF7 (A) and TS/A (B) cell proliferation after 24 h treatment using a colorimetric immunoassay measuring BrDU incorporation in DNA (C, D) Histogram representing the effect of OCDO on MCF7 (C) and TS/A (D) cell invasion. Data are the mean of three separate experiments (±s.e.m), *P<0.05, **P<0.01, ***P<0.001 (Student's t-test). (E, F) Mice were implanted s.c. with MCF7 (E) or TS/A (F) cells and animals (8 per group) were treated s.c. every day starting on the day of implantation with either the solvent vehicle or OCDO (16 μg/kg for MCF7 or 50 μg/kg for TS/A). Animals were monitored for tumour growth twice a week. The data are representative of three independent experiments. The mean tumor volume±s.e.m is shown, *P<0.05, **P<0.01, ***P<0.001 (analysis of variance (ANOVA), Dunnett's post test). (G) Mean (±s.e.m) of Ki67 positive cell number determined from IHC staining of MCF7 tumor sections from (E), n=8, *P<0.05 (Student's t-test) using HistoQuant, Pannoramic Viewer (3DHistech). […]
Invasion assays were carried out using Bio-Coat migration chambers (BD Falcon) with 8 μm filters previously coated with matrigel. […] The entire membranes were mounted on glass slides, and were counted under a microscope. […]

TS/A tumors = experiment: Growth of TS/A tumors implanted s.c. into mice; format: in vivo
Description: FIG. 2. OCDO is a tumor promoter in vitro and in vivo and its inhibition contributes to the anti-tumor effects of Tam and DDA. (A, B) Histograms representing the effect of OCDO or 17β-estrogen (E2) on MCF7 (A) and TS/A (B) cell proliferation after 24 h treatment using a colorimetric immunoassay measuring BrDU incorporation in DNA (C, D) Histogram representing the effect of OCDO on MCF7 (C) and TS/A (D) cell invasion. Data are the mean of three separate experiments (±s.e.m), *P<0.05, **P<0.01, ***P<0.001 (Student's t-test). (E, F) Mice were implanted s.c. with MCF7 (E) or TS/A (F) cells and animals (8 per group) were treated s.c. every day starting on the day of implantation with either the solvent vehicle or OCDO (16 μg/kg for MCF7 or 50 μg/kg for TS/A). Animals were monitored for tumour growth twice a week. The data are representative of three independent experiments. The mean tumor volume±s.e.m is shown, *P<0.05, **P<0.01, ***P<0.001 (analysis of variance (ANOVA), Dunnett's post test). (G) Mean (±s.e.m) of Ki67 positive cell number determined from IHC staining of MCF7 tumor sections from (E), n=8, *P<0.05 (Student's t-test) using HistoQuant, Pannoramic Viewer (3DHistech). (H) Representative Ki67 staining of TS/A tumor sections from (F) showing increased staining in OCDO-treated tumor compared with control-treated tumor. (I, J, K). Murine E0771(I), or human MDA-MB231 (J) or MDA-MB468 (K) cells implanted s.c. into mice (8 per group) and animals were treated s.c. with either the solvent vehicle or OCDO (16 μg/kg for MDA-MB-231 and MDA-MB-468 or 50 μg/kg for E0771). The data are representative of two independent experiments. Statistical analysis was performed as in E and F. (L) Mice were implanted s.c. with TS/A cells and animals (8 per group) were treated s.c. every day with either the solvent vehicle, OCDO (50 μg/kg), Tam (56 mg/kg), DDA (20 mg/kg) or the combination of Tam (56 mg/kg) +OCDO (50 μg/kg) or DDA (20 mg/kg)+OCDO (50 μg/kg). The data are representative of three independent experiments. Statistical analysis was performed as in E and F.
Exponentially growing MCF7, ShMCF7, E0771, MDA-MB231, MDA-MB468 and TS/A cells were collected, washed twice in PBS and resuspended in PBS. TS/A and E9771 tumours were prepared by subcutaneous transplantation of 35×10^3 cells or 3×10^5 cells respectively in 100 μl PBS into the flank of BALB/c or C57B16 mice. For other tumors, 5 to 10×10^6 cells in 200 μl PBS/matrigel (1/1) were injected into the flank of NMRI nude mice. Animals were treated as indicated in the legends. Animals were examined daily, and body weights were measured twice per week. In all the experiments, the tumor volume was determined by direct measurement with a caliper and was calculated using the formula (width^2×length)/2. Tumors were either frozen in liquid nitrogen or fixed in 10% neutral-buffered formalin and embedded in paraffin for immunohistochemical analysis. Paraffin sections were stained with haematoxylin and eosin for histomorphological analyses. Immunohistochemical staining was done on paraffin-embedded tissue sections, using a specific Ki67 antibody (Dako).
We then assayed the anti-growth effect of Tam or DDA against TS/A tumors in the absence and presence of OCDO. As above, TS/A tumors implanted into immunocompetent mice were treated s.c. every day either with either the solvent vehicle (control), OCDO (50 μg/kg), Tam (56 mg/kg), DDA (20 mg/kg) or the combination of Tam (56 mg/kg)+OCDO (50 μg/kg) or DDA (20 mg/kg) +OCDO (50 μg/kg).

[1] = tested on: HSD1-transfected MCF7 cells; experiment: Proliferation of 11βHSD1-transfected MCF7 cells (BrDU); format: cell-based, human; conditions: 5 μM OCDO for 24 h
Description: FIG. 5. Ectopic expression of 11βHSD1 in MCF7 inhibits cell proliferation and OCDO reverses this effect. MCF7 cells were transfected by electroporation with a plasmid coding either the enzymes 11βHSD1 (HSD1) or the control empty vector (mock) and analyzed as followed: (A) the expression of 11βHSD1 was confirmed by immunoblotting using specific antibody against 11βHSD1 and normalized with actin; (B) The production of CT was determined by incubating the mock or the HSD1-transfected cells with ^14C-OCDO for 72 h at 37° C. The radioactive metabolites of interest were analyzed as in the legend of FIG. 4B. (C) The proliferation of the mock- or the HSD1-transfected MCF7 cells treated or not with 5 μM OCDO for 24 h were analyzed as in FIG. 2A. The results in B and C are the mean (±s.e.m) of three to five experiments, **P<0.01, ***P<0.001 (Student's t-test), ns: non specific.
MCF7 or HEK293T cells (5×10^6 cells) were transfected with 5 μg of the indicated plasmid using the NEON Transfection System and according to the manufacturer's recommendations. […] Several clones were analyzed by immunoblot analysis and real time RT-qPCR for the knock down of the expression of the protein of interest. […]

Compound: CC(C)CCC[C@@H](C)[C@H]1CC[C@H]2[C@@H]3CC(=O)[C@@]4(O)C[C@@H](O)CC[C@]4(C)[C@H]3CC[C@]12C [OCDO, 6-oxo-cholestan-3β,5α-diol]
- invasiveness compared with the control (TS/A cells): 2.3 fold
- tumor growth compared with the control group (TS/A tumors; TS/A tumors in immunocompetent mice, OCDO 50 μg/kg s.c. every day): significantly increased
- proliferative marker Ki67 in tumors compared with control-treated tumors (TS/A tumors; TS/A tumors, IHC): increased
- enhancement of TS/A tumor growth compared with the control group (TS/A tumors; after 13 days of treatment, OCDO 50 μg/kg s.c. every day, p<0.01): 140%
- effect on the decrease of cell proliferation induced by 11βHSD1 expression [1]: reversed this effect
